Reference: patent US6545131B1, “Tissue specific prodrug” (priority 1997, dated 2003)
Starred links: 1 amine or outer side, 2 acyl side, 3 side chain; linkers in the order of their positions; H or OH if unused. Residues, ends and D or L forms follow the SMILES beside them. *: point of attachment. AMC = Cc1cc(=O)oc2cc(N*)ccc12; Morpholide = C1CN(*)CCO1; CO = O=C([*:1])[*:2]

How the values were obtained:
[1] = molecular target: T1, PSA (prostate specific antigen) (Homo sapiens, UniProt P07288); test: Cleavage of AMC-labelled peptide substrates by purified PSA (fluorescence of released AMC; Lineweaver-Burke kinetics); assay type: biochemical; conditions: for picomoles of peptide cleaved/min/200 picomoles protease: PSA: pH 7.8, SKLQ, KLQ, LQ in 1.4% acetonitrile/buffer, Q-AMC in 0.2% formic acid/buffer; for Kcat / Km: PSA substrate, PSA assay buffer pH 7.8, Lineweaver-Burke
T1 construct: PSA was purified from human seminal plasma; from tissue; host or cells: human seminal plasma
T1 sequence (P07288 25-261): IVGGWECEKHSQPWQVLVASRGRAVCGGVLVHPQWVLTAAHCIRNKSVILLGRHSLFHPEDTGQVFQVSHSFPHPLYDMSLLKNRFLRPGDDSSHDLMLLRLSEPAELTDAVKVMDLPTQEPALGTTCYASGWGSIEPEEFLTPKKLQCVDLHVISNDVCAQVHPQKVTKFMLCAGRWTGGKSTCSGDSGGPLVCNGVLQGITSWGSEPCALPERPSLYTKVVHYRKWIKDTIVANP
Method: (§1) The peptides discussed herein were custom synthesized by Enzyme Systems Products (Dublin, Calif.) and, after HPLC separation and purification to >95%, the molecular weights were confirmed by mass spectroscopy. All peptides had morpholinocarbonyl protecting the amino terminus and 7-amino-4-methylcoumarin (AMC) attached via an amide bond to the carboxyl group of the carboxy-terminal amino acid. Peptides were first dissolved in distilled water (5 mM) and then diluted into PSA assay buffer (50 mM Tris/0.1M NaCl pH 7.8). The glutamine-AMC peptide had the amino terminus and side chain amine unprotected and was obtained from Bachem (Torrance, Calif.).
(§2) PSA was purified from human seminal plasma as described in Christensson, et al. Eur. J. Biochem. 194:755-765, (1990). Plasmin, urokinase, tissue plasminogen activator (TPA), human plasma and porcine pancreatic kallikrein and a 1-antichymotrypsin were obtained from Calbiochem (San Diego, Calif.). All other proteases were obtained from Sigma Chemical Co. (St. Louis, Mo.). Mouse serum was obtained from East Acres Biologicals (South Bridge, Mass.). Goat and calf sera were obtained from Gibco BRL (Grand Island, N.Y.). Rat serum was obtained in-house from sacrificed animals. Human serum was obtained from volunteers.
(§3) Cleavage was studied by measuring fluorescence change secondary to AMC release. Fluorescence detection was carried out with a Fluoroskan II 96 well fluorometric plate reader (ICN Biomedicals, Costa Mesa, Calif.), with excitation wavelength 355 nm and emission wavelength 460 nm. Data were collected and analyzed using Deltasoft III software (Biometallics, Princeton, N.J.). All reactions were performed at room temperature by the addition of substrate and proteases into PSA buffer, described below, in a final volume of 200 μL. The results were determined from the initial linear increase of fluorescence and were expressed as the picomoles of AMC released per minute based upon comparison to a standard curve of the fluorescence of known amounts of AMC (i.e., fluorescence was linear form 20 to 300 picomoles of AMC). The data were analyzed by Lineweaver-Burke reciprocal plots to determine the Michaelis-Menten constant (i.e., Km) expressed as the amount of substrate needed to saturate half of the enzyme and the catalytic rate constant (i.e., kcat) expressed as the amount of substrate converted to product per time per amount of enzyme.
(§4) Each assay contains 200 picomoles of the particular protease and 0.2 mM concentration of the particular substrate (i.e., 40,000 picomoles/200 μL of assay volume). The amino acid sequences expressed in one letter amino acid code represent the following amino acid sequences in the three letter amino acid code: EHSSKLQ (Glu-His-Ser-Ser-Lys-Leu-Gln; SEQ ID NO:10), QNKISYQ (Gln-Asn-Lys-Ile-Ser-Tyr-Gln; SEQ ID NO:11), ENKISYQ (Glu-Asn-Lys-Ile-Ser-Tyr-Gln; SEQ ID NO:12), and ATKSKQH (Ala-Thr-Lys-Ser-Lys-Gln-His; SEQ ID NO:13). Determinations listed in the table were carried out with substrates at 0.2 mM concentration in the PSA assay buffer (50 mM Tris/0.1M NaCl pH 7.8). The entry “UD” stands for “undetectable” and means that at most, 0.1 pmole of substrate cleavage per minute per 200 pmole protease took place. Asterisks represent experiments not performed. Abbreviations are as follows: PSA (prostate specific antigen), Chymo (chymotrypsin), Urokin (urokinase), TPA (tissue plasminogen activator), Thromb (thrombin), Kallik (human kallikrein, hK1).
The data in Table 2 are the results of kinetic experiments with the peptide substrates used in Example 1. Experimental details are found in Example 1.
The amino acid sequences expressed in one letter amino acid code represent the following amino acid sequences in the three letter amino acid code: EHSSKLQ (Glu-His-Ser-Ser-Lys-Leu-Gln; SEQ ID NO:10), HSSKLQ (His-Ser-Ser-Lys-Leu-Gln; SEQ ID NO:7), SKLQ (Ser-Lys-Leu-Gln; SEQ ID NO:1), and ATKSKQH (Ala-Thr-Lys-Ser-Lys-Gln-His; SEQ ID NO:13). […]

Plasmin = molecular target: T2, Plasmin (Homo sapiens, UniProt P00747); test: Peptide-AMC cleavage by purified extracellular protease; assay type: biochemical; conditions: 0.2 mM substrate, PSA assay buffer pH 7.8
T2 construct: purchased Calbiochem
T2 sequence (P00747 581-810 limits assumed, species assumed): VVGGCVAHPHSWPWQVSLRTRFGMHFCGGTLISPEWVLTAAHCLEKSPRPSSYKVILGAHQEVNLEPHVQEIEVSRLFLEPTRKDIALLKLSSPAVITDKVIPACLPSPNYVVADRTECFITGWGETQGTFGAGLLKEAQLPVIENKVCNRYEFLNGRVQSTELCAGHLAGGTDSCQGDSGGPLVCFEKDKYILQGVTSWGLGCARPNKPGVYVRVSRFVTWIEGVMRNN
T2 sequence (P00747 97-580 partner limits assumed, species assumed): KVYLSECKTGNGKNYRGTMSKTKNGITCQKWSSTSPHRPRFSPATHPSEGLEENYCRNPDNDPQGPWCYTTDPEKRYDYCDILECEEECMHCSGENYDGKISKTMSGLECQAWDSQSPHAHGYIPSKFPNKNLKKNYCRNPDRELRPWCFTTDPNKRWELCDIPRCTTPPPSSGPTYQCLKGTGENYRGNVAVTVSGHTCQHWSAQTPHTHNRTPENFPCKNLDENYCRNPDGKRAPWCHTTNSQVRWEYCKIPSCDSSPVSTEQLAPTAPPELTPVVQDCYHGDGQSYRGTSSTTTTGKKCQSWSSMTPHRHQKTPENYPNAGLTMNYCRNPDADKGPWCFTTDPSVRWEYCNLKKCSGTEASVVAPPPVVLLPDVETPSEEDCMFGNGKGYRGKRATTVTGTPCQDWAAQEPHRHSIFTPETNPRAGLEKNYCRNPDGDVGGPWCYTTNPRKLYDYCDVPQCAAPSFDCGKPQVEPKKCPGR
Method: as §1, §2, §3, §4

[2] = molecular target: T3, tissue plasminogen activator (TPA) (Homo sapiens, UniProt P00750); test: as above; assay type: biochemical; conditions: 0.2 mM substrate, PSA assay buffer pH 7.8
T3 construct: purchased Calbiochem
T3 sequence (P00750 36-562, species assumed): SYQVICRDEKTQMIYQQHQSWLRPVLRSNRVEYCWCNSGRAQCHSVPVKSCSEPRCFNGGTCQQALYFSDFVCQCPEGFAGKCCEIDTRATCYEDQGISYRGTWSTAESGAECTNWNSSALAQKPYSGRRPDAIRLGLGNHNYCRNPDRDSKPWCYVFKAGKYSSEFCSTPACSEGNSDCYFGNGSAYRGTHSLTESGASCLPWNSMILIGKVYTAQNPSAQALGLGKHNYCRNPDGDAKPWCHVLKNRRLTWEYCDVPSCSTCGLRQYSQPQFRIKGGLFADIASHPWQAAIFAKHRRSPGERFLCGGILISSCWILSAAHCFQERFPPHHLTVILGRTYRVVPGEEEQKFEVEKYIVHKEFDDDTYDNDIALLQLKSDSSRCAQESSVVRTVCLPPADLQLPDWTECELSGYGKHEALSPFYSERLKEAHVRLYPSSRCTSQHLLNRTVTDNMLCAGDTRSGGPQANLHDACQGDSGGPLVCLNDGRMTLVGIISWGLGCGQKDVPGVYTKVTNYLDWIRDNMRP
Method: as §1, §2, §3, §4

thrombin = molecular target: T4, thrombin (Homo sapiens, UniProt P00734); test: as above; assay type: biochemical; conditions: 0.2 mM substrate, PSA assay buffer pH 7.8
T4 construct: purchased Sigma Chemical Co
Method: as §1, §2, §3, §4

human kallikrein, hK1 = test: as above; assay type: biochemical; conditions: 0.2 mM substrate, PSA assay buffer pH 7.8
Method: as §1, §2, §3, §4

chymotrypsin = molecular target: T5, chymotrypsin (Bos taurus, UniProt P00766); test: as above; assay type: biochemical; conditions: 0.2 mM substrate, PSA assay buffer pH 7.8
T5 construct: purchased Sigma Chemical Co
Method: as §1, §2, §3, §4

Trypsin = test: as above; assay type: biochemical; conditions: 0.2 mM substrate, PSA assay buffer pH 7.8
Method: as §1, §2, §3, §4

Elastase = test: as above; assay type: biochemical; conditions: 0.2 mM substrate, PSA assay buffer pH 7.8
Method: as §1, §2, §3, §4

urokinase = molecular target: T6, urokinase (Homo sapiens, UniProt P00749); test: as above; assay type: biochemical; conditions: 0.2 mM substrate, PSA assay buffer pH 7.8
T6 construct: purchased Calbiochem
Method: as §1, §2, §3, §4

[3] = Stability of PSA substrates in serum (AMC release); assay type: in vitro ADME; conditions: 0.2 mM substrate
From the text: as §2, §3
Because the prodrug can be given systemically via the blood, it is useful to determine the stability of the substrates in sera from a variety of species. The substrates and experimental details are found as described in Example 1.
The amino acid sequences expressed in one letter amino acid code represent the following amino acid sequences in the three letter amino acid code: EHSSKLQ (Glu-His-Ser-Ser-Lys-Leu-Gln; SEQ ID NO:10), QNKISYQ (Gln-Asn-Lys-Ile-Ser-Tyr-Gln; SEQ ID NO:11), ENKISYQ (Glu-Asn-Lys-Ile-Ser-Tyr-Gln; SEQ ID NO:12) and ATKSKQH (Ala-Thr-Lys-Ser-Lys-Gln-His; SEQ ID NO:13). Determinations listed in the table were carried out with substrates at 0.2 mM concentration in the PSA assay buffer (50 mM Tris/0.1M NaCl pH 7.8). AMC is 7-amino-4-methylcoumarin. The human serum used was 100% for each assay. The entry “UD” stands for “undetectable”, and means that not more than 0.01 picomole of substrate per minute was cleaved.

porcine liver esterase = test: PSA substrate cleavage by purified intracellular protease; assay type: biochemical; conditions: 0.2 mM substrate, pH 7.8; SKLQ, KLQ, LQ in 1.4% acetonitrile/buffer, Q-AMC in 0.2% formic acid/buffer
Method: as §3
(§5) A family of peptide substrates based upon the EHSSKLQ (SEQ ID NO:10) sequence was assayed for activity for the intracellular proteases, and the results given in Table 4.
(§6) The amino acid sequences expressed in one letter amino acid code represent the following amino acid sequences in the three letter amino acid code: EHSSKLQ (Glu-His-Ser-Ser-Lys-Leu-Gln; SEQ ID NO:10), The shorter sequences are formed by deleting amino acids from the amino terminal side of the sequence. Determinations listed in the table were carried out with substrates at 0.2 mM concentration in the PSA assay buffer (50 mM Tris/0.1M NaCl pH 7.8), except SKLQ (SEQ ID NO:1), KLQ and LQ, which were carried out in 1.4% acetonitrile/buffer and Q-AMC which was carried out in 0.2% formic acid/buffer, at pH 7.8. The entry “UD” stands for “undetectable” and means that at most, 0.1 pmole of substrate cleavage per minute per 200 pmole protease took place. Asterisks represent experiments not performed. Abbreviations are as follows: PSA (prostate specific antigen), Cath B, C, D (Cathepsins, B, C, D), Esterase (porcine liver esterase).

Cathepsin D = molecular target: T7, Cathepsin D (Homo sapiens, UniProt P07339); test: as above; assay type: biochemical; conditions: 0.2 mM substrate, pH 7.8; SKLQ, KLQ, LQ in 1.4% acetonitrile/buffer, Q-AMC in 0.2% formic acid/buffer
T7 construct: purchased Sigma Chemical Co
T7 sequence (P07339 65-412): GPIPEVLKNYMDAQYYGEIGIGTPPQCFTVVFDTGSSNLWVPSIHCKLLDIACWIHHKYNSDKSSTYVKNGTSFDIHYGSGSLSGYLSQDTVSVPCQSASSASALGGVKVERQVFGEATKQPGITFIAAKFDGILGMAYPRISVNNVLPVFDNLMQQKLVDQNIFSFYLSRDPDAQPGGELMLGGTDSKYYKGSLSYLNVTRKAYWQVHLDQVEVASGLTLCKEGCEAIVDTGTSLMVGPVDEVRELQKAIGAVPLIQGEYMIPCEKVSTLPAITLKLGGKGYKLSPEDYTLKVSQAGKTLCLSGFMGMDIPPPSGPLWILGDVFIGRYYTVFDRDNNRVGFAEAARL
Method: as §3, §5, §6

Cathepsin C = molecular target: T8, Cathepsin C (Homo sapiens, UniProt P53634); test: as above; assay type: biochemical; conditions: 0.2 mM substrate, pH 7.8; SKLQ, KLQ, LQ in 1.4% acetonitrile/buffer, Q-AMC in 0.2% formic acid/buffer
T8 construct: purchased Sigma Chemical Co
T8 sequence (P53634 25-463): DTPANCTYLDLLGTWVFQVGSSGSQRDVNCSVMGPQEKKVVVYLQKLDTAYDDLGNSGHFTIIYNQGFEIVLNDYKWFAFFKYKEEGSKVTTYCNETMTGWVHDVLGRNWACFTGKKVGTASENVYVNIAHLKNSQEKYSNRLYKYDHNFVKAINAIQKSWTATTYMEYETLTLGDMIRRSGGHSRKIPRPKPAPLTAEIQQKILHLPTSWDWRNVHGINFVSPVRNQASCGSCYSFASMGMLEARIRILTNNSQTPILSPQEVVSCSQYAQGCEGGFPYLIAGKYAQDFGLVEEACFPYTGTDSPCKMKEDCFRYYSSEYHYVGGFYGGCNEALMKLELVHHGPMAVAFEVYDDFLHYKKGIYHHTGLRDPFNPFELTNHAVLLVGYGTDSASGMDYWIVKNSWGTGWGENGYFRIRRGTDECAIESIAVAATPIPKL
Method: as §3, §5, §6

Cathepsin B = molecular target: T9, Cathepsin B (Homo sapiens, UniProt P07858); test: as above; assay type: biochemical; conditions: 0.2 mM substrate, pH 7.8; SKLQ, KLQ, LQ in 1.4% acetonitrile/buffer, Q-AMC in 0.2% formic acid/buffer
T9 construct: purchased Sigma Chemical Co
Method: as §3, §5, §6

SMILES: CC[C@H](C)[C@H](NC(=O)[C@H](CCCCN)NC(=O)[C@H](CC(N)=O)NC(=O)[C@H](CCC(=O)O)NC(=O)N1CCOCC1)C(=O)N[C@@H](CO)C(=O)N[C@@H](Cc1ccc(O)cc1)C(=O)N[C@@H](CCC(N)=O)C(=O)Nc1ccc2c(C)cc(=O)oc2c1 [ENKISYQ, Glu-Asn-Lys-Ile-Ser-Tyr-Gln] ({Morpholide-CO}-ENKISYQ-{AMC})
- Picomoles of substrate cleaved/minute/200 pmoles of indicated protease: PSA ([1]; 0.2 mM substrate, PSA assay buffer pH 7.8, room temperature): 14.4 picomoles/minute/200 pmoles pr
- Picomoles of substrate cleaved/minute/200 pmoles of indicated protease: Plasmin (Plasmin): 0.6 picomoles/minute/200 pmoles pr
- Picomoles of substrate cleaved/minute/200 pmoles of indicated protease: TPA [2]: .04 picomoles/minute/200 pmoles pr
- Picomoles of substrate cleaved/minute/200 pmoles of indicated protease: Thromb (thrombin): 0.3 picomoles/minute/200 pmoles pr
- Picomoles of substrate cleaved/minute/200 pmoles of indicated protease: Kallik (human kallikrein, hK1): UD (at most, 0.1 pmole of substrate cleavage per minute per 200 pmole protease took place)
- Picomoles of substrate cleaved/minute/200 pmoles of indicated protease: Chymo (chymotrypsin): 3.6 picomoles/minute/200 pmoles pr
- Picomoles of substrate cleaved/minute/200 pmoles of indicated protease: Trypsin (Trypsin): 1.8 picomoles/minute/200 pmoles pr
- Picomoles of substrate cleaved/minute/200 pmoles of indicated protease: Elastase (Elastase): 2.6 picomoles/minute/200 pmoles pr
- Picomoles of substrate cleaved/minute/200 pmoles of indicated protease: Urokin (urokinase): UD (at most, 0.1 pmole of substrate cleavage per minute per 200 pmole protease took place)
- picomles AMC released/minute: Calf [3]: UD (not more than 0.01 picomole of substrate per minute was cleaved)
- picomles AMC released/minute: Fetal Calf [3]: 9.59 picomoles/minute
- picomles AMC released/minute: Goat [3]: 3.18 picomoles/minute
- picomles AMC released/minute: Mouse [3]: 3.71 picomoles/minute
- picomles AMC released/minute: Rat [3]: 11.2 picomoles/minute
- picomles AMC released/minute: Human ([3]; human serum 100%): 1.27 picomoles/minute

SMILES: Cc1cc(=O)oc2cc(NC(=O)[C@H](CCC(N)=O)NC(=O)[C@H](CC(C)C)NC(=O)[C@H](CCCCN)NC(=O)[C@H](CO)NC(=O)[C@H](CO)NC(=O)[C@H](Cc3c[nH]cn3)NC(=O)N3CCOCC3)ccc12 [HSSKLQ, His-Ser-Ser-Lys-Leu-Gln] ({Morpholide-CO}-HSSKLQ-{AMC})
- picomoles of peptide cleaved/min/200 picomoles protease: PSA ([1]; 0.2 mM substrate): 62.7 picomoles/min/200 picomoles pr
- Kcat [1]: 0.011 s⁻¹
- Km [1]: 470 µM
- picomoles of peptide cleaved/min/200 picomoles protease: Esterase (porcine liver esterase): UD (at most, 0.1 pmole of substrate cleavage per minute per 200 pmole protease took place)
- picomoles of peptide cleaved/min/200 picomoles protease: Cath D (Cathepsin D): 3.8 picomoles/min/200 picomoles pr
- picomoles of peptide cleaved/min/200 picomoles protease: Cath C (Cathepsin C): UD (at most, 0.1 pmole of substrate cleavage per minute per 200 pmole protease took place)
- picomoles of peptide cleaved/min/200 picomoles protease: Cath B (Cathepsin B): 17.3 picomoles/min/200 picomoles pr

SMILES: Cc1cc(=O)oc2cc(NC(=O)[C@H](CCC(N)=O)NC(=O)[C@H](CC(C)C)NC(=O)[C@H](CCCCN)NC(=O)[C@H](CO)NC(=O)N3CCOCC3)ccc12 [SKLQ, Ser-Lys-Leu-Gln] ({Morpholide-CO}-SKLQ-{AMC})
- picomoles of peptide cleaved/min/200 picomoles protease: PSA ([1]; 0.2 mM substrate): 29.6 picomoles/min/200 picomoles pr
- Kcat [1]: 0.020 s⁻¹
- Km [1]: 813 µM
- picomoles of peptide cleaved/min/200 picomoles protease: Esterase (porcine liver esterase): UD (at most, 0.1 pmole of substrate cleavage per minute per 200 pmole protease took place)
- picomoles of peptide cleaved/min/200 picomoles protease: Cath D (Cathepsin D): 6.4 picomoles/min/200 picomoles pr
- picomoles of peptide cleaved/min/200 picomoles protease: Cath C (Cathepsin C): UD (at most, 0.1 pmole of substrate cleavage per minute per 200 pmole protease took place)
- picomoles of peptide cleaved/min/200 picomoles protease: Cath B (Cathepsin B): 31.2 picomoles/min/200 picomoles pr
